Measured values reported in patent US20260285850A1, “SUBSTITUTED OXAZOLIDINONES AND IMIDAZOLINONES AS HERBICIDES” (FMC CORPORATION, priority 2023, published 2026).

Legend:
Type in all cases: in vivo
[1] = tested on: wheat (Triticum aestivum); assay: Test A preemergence soil spray, visual injury rating 0-100; conditions: 10 days
Summary of the method: (§1)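 Scale 0–100 (no effect to complete control), visual, versus untreated controls, read 10 days after application. Application: preemergence directed spray onto seeded loam–sand soil, or postemergence to young plants; formulation in non-phytotoxic solvent with surfactant.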

[2] = tested on: barnyardgrass (Echinochloa crus-galli); assay: as above; conditions: 10 days
Summary of the method: as §1

[3] = tested on: soybean (Glycine max); assay: as above; conditions: 10 days
Summary of the method: as §1

[4] = tested on: kochia (Bassia scoparia); assay: as above; conditions: 10 days
Summary of the method: as §1

[5] = tested on: ryegrass, Italian (italian ryegrass, Lolium multiflorum); assay: as above; conditions: 10 days
Summary of the method: as §1

[6] = tested on: palmer (palmer amaranth, palmer pigweed, Amaranthus palmeri); assay: as above; conditions: 10 days
Summary of the method: as §1

[7] = tested on: green foxtail (Setaria viridis); assay: as above; conditions: 10 days
Summary of the method: as §1

[8] = tested on: ragweed (common ragweed, Ambrosia artemisiifolia); assay: as above; conditions: 10 days
Summary of the method: as §1

[9] = tested on: corn (Zea mays); assay: as above; conditions: 10 days
Summary of the method: as §1

[10] = tested on: blackgrass (Alopecurus myosuroides); assay: as above; conditions: 10 days
Summary of the method: as §1

[11] = tested on: oat, wild (wild oat, Avena fatua); assay: as above; conditions: 10 days
Summary of the method: as §1

[12] = tested on: wheat (Triticum aestivum); assay: Test A postemergence application, visual injury rating 0-100
Summary of the method: as §1

[13] = tested on: barnyardgrass (Echinochloa crus-galli); assay: as above
Summary of the method: as §1

[14] = tested on: soybean (Glycine max); assay: as above
Summary of the method: as §1

[15] = tested on: kochia (Bassia scoparia); assay: as above
Summary of the method: as §1

[16] = tested on: ryegrass, Italian (italian ryegrass, Lolium multiflorum); assay: as above
Summary of the method: as §1

[17] = tested on: palmer (palmer amaranth, palmer pigweed, Amaranthus palmeri); assay: as above
Summary of the method: as §1

[18] = tested on: green foxtail (Setaria viridis); assay: as above
Summary of the method: as §1

[19] = tested on: ragweed (common ragweed, Ambrosia artemisiifolia); assay: as above
Summary of the method: as §1

[20] = tested on: horseweed (Erigeron canadensis); assay: as above
Summary of the method: as §1

[21] = tested on: corn (Zea mays); assay: as above
Summary of the method: as §1

[22] = tested on: blackgrass (Alopecurus myosuroides); assay: as above
Summary of the method: as §1

[23] = tested on: oat, wild (wild oat, Avena fatua); assay: as above
Summary of the method: as §1

[24] = tested on: galium (catchweed bedstraw, Galium aparine); assay: as above
Summary of the method: as §1

[25] = tested on: barnyardgrass (Echinochloa crusgalli); assay: Test B flooded paddy test, visual plant response rating 0-100; conditions: 250 g ai/ha, Flood, applied to paddy water, evaluated after 13 days
Summary of the method: (§2)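 Visual scores versus untreated controls were recorded 13 days after treatment of greenhouse-held plants. At the 2-leaf stage, pots were flooded 3 cm above the soil surface and compounds added straight to the water.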

[26] = tested on: sedge, umbrella (small-flower umbrella sedge, Cyperus difformis); assay: as above; conditions: 250 g ai/ha, Flood, applied to paddy water, evaluated after 13 days
Summary of the method: as §2

[27] = tested on: ducksalad (Heteranthera limosa); assay: as above; conditions: 250 g ai/ha, Flood, applied to paddy water, evaluated after 13 days
Summary of the method: as §2

[28] = tested on: rice (Oryza sativa); assay: as above; conditions: 250 g ai/ha, Flood, applied to paddy water, evaluated after 13 days
Summary of the method: as §2

[29] = 62 g ai/ha, 0 = no effect, 100 = complete control
[30] = 62 g ai/ha, postemergence, 10 days, 0 = no effect, 100 = complete control
[31] = Postemergence, 16 g ai/ha, greenhouse 10 days, 0 no effect, 100 complete control

CSCCOC(=O)C1CC(NC(=O)C2(C)CN(c3cc(F)cc(F)c3)C(=O)O2)C1 (racemic) [Compound 120]
10: Ryegrass, Italian plant response rating ([5]; 16 g ai/ha, 0 to 100 scale) | Ragweed plant response rating ([8]; 16 g ai/ha, 0 to 100 scale) | Ryegrass, Italian plant response rating (0 to 100 scale) [16, 31] | Pigweed, Palmer plant response rating (0 to 100 scale) [17, 31] | Horseweed plant response rating (0-100) [20, 30] | Horseweed plant response rating (0 to 100 scale) [20, 31]
80: Ryegrass, Italian plant response rating (0-100) [5, 29] | Corn plant response rating (0-100) [9, 29] | Blackgrass plant response rating (0-100) [10, 29] | Soybean plant response rating (0-100) [14, 30] | Kochia plant response rating (0-100) [15, 30] | Oat, Wild plant response rating (0-100) [23, 30]
30: Kochia plant response rating (0-100) [4, 29] | Oat, Wild plant response rating (0 to 100 scale) [23, 31]
60: Barnyardgrass plant response rating (0-100) [2, 29] | Foxtail, Green plant response rating (0 to 100 scale) [18, 31]
100: Barnyardgrass plant response rating (0-100) [13, 30] | Corn plant response rating (0-100) [21, 30]
90: Oat, Wild plant response rating ([11]; 16 g ai/ha, 0 to 100 scale) | Oat, Wild plant response rating (0-100) [11, 29] | Wheat plant response rating (0-100) [12, 30] | Wheat plant response rating (0 to 100 scale) [12, 31] | Foxtail, Green plant response rating (0-100) [18, 30] | Corn plant response rating (0 to 100 scale) [21, 31] | Blackgrass plant response rating (0-100) [22, 30]
20: Wheat plant response rating ([1]; 16 g ai/ha, 0 to 100 scale) | Pigweed, Palmer plant response rating (0-100) [6, 29] | Foxtail, Green plant response rating ([7]; 16 g ai/ha, 0 to 100 scale) | Foxtail, Green plant response rating (0-100) [7, 29] | Ragweed plant response rating (0 to 100 scale) [19, 31] | Galium plant response rating (0 to 100 scale) [24, 31]
0: Barnyardgrass plant response rating ([2]; 16 g ai/ha, 0 to 100 scale) | Soybean plant response rating ([3]; 16 g ai/ha, 0 to 100 scale) | Soybean plant response rating (0-100) [3, 29] | Kochia plant response rating ([4]; 16 g ai/ha, 0 to 100 scale) | Pigweed, Palmer plant response rating ([6]; 16 g ai/ha, 0 to 100 scale) | Ragweed plant response rating (0-100) [8, 29] | Corn plant response rating ([9]; 16 g ai/ha, 0 to 100 scale) | Kochia plant response rating (0 to 100 scale) [15, 31] | Plant response rating, Barnyardgrass (0 to 100 scale, 0 is no effect and 100 is complete control) [25] | Plant response rating, Sedge, Umbrella (0 to 100 scale, 0 is no effect and 100 is complete control) [26] | Plant response rating, Ducksalad (0 to 100 scale, 0 is no effect and 100 is complete control) [27] | Plant response rating, Rice (0 to 100 scale, 0 is no effect and 100 is complete control) [28]
50: Barnyardgrass plant response rating (0 to 100 scale) [13, 31] | Soybean plant response rating (0 to 100 scale) [14, 31]
40: Blackgrass plant response rating ([10]; 16 g ai/ha, 0 to 100 scale) | Ragweed plant response rating (0-100) [19, 30]
70: Wheat plant response rating (0-100) [1, 29] | Ryegrass, Italian plant response rating (0-100) [16, 30] | Pigweed, Palmer plant response rating (0-100) [17, 30] | Blackgrass plant response rating (0 to 100 scale) [22, 31] | Galium plant response rating (0-100) [24, 30]
